Assay results: patent US5939318A, “Cholesterol disposal fusion enzymes” (Regents of the University of California, priority 1996, dated 1999)

How the values were obtained:
[1] = target: fusion enzyme F2, H3N-P450scc-AdRed-Adx-COOH (human P450scc, adrenodoxin reductase 18- form, adrenodoxin) (Homo sapiens, UniProt P05108+P22570); conditions: substrate 0.5 to 5.0 μM, 24 h incubation, F2-transfected COS-1 cells
Procedure: (§1) Cells were maintained at 37° C. in 5% CO2.
(§2) All samples were assayed in triplicate.

[2] = target: human P450scc (SEQ ID NO: 2), natural three-component system co-expressed with adrenodoxin and adrenodoxin reductase (Homo sapiens, UniProt P05108); conditions: substrate 0.5 to 5.0 μM, 24 h incubation, triply transfected COS-1 cells
Sequence of human P450scc (SEQ ID NO: 2), natural three-component system co-expressed with adrenodoxin and adrenodoxin reductase (P05108 40-521 I301M): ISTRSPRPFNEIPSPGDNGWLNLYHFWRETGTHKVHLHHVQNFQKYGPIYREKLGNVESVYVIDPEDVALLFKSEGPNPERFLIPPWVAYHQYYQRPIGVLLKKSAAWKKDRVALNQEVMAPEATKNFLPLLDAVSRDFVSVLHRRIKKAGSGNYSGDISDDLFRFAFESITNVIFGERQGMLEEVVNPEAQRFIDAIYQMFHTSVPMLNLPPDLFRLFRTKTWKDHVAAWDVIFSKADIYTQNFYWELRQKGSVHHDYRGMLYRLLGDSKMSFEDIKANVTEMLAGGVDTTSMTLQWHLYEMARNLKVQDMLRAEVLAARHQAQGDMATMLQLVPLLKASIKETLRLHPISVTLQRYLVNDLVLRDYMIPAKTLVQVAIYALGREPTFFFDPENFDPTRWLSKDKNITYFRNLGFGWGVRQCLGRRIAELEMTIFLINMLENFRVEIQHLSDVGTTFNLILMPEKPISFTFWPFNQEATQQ
Procedure: as §1, §2

cytochrome P450scc = target: T1, cytochrome P450scc (Bos taurus, UniProt P00189); conditions: Morisaki et al 1980; cited from earlier work
T1 sequence (P00189 40-520): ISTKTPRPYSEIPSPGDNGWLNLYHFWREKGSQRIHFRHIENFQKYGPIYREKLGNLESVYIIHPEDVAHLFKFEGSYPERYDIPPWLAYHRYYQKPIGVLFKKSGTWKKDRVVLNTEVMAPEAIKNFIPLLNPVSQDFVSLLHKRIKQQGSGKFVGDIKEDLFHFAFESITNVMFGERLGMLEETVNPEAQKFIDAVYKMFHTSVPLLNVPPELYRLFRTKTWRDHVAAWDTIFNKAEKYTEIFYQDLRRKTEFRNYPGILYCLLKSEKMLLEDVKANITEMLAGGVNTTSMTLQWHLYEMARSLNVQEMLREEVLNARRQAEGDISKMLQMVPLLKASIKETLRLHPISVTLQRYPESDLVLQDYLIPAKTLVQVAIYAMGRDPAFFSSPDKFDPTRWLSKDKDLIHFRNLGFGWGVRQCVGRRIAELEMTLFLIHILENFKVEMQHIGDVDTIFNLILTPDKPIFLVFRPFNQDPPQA

Sequence of fusion enzyme F2, H3N-P450scc-AdRed-Adx-COOH (human P450scc, adrenodoxin reductase 18- form, adrenodoxin) (P05108+P22570 fused): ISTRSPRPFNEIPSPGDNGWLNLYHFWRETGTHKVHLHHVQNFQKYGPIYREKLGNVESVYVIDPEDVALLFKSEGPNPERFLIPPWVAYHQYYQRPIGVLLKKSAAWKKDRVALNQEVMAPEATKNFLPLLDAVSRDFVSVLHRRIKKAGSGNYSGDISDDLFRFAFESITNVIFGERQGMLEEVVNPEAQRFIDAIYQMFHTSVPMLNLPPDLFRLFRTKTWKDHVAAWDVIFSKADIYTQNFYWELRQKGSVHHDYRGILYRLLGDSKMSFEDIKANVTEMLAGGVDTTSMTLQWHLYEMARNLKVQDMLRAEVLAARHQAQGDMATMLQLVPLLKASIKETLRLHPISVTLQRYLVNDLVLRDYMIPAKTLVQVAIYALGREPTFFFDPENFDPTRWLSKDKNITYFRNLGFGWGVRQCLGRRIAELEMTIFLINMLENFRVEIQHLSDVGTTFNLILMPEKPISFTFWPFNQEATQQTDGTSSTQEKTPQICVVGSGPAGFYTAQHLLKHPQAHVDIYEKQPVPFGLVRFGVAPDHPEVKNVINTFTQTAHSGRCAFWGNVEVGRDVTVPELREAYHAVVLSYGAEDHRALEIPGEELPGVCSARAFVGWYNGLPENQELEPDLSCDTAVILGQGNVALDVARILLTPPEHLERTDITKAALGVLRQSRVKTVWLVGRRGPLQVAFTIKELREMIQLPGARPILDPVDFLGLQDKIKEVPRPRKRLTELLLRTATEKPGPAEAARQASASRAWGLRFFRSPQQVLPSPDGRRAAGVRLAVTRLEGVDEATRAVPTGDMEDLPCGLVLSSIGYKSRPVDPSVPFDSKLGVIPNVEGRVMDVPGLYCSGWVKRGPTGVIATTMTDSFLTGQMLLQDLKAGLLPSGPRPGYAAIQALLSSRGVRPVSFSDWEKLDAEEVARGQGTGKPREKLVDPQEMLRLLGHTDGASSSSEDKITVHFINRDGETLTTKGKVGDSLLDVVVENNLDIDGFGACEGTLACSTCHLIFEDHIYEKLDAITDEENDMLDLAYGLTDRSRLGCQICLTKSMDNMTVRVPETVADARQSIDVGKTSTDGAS

SMILES | Km [1] [µM] | Vmax ([1]; pregnenolone in culture medium) [ng/ml/24 h] | Vmax [2] | Km ([2]; dose-response data) [µM] | turnover (cholesterol converted per enzyme) (cytochrome P450scc)
CC(C)CC[C@@H](O)[C@@H](C)[C@H]1CC[C@H]2[C@@H]3CC=C4C[C@@H](O)CC[C@]4(C)[C@H]3CC[C@]12C [22R-hydroxycholesterol] | 2.85 | 9.1 | 1.7 ng pregnenolone/ml of culture medium/24 h | 0.37 | –
CC(C)CCC[C@@H](C)[C@H]1CC[C@H]2[C@@H]3CC=C4C[C@@H](O)CC[C@]4(C)[C@H]3CC[C@]12C [cholesterol] | – | – | – | – | about 1 mole of cholesterol per mole of enzyme per second
